# Source: PubChem BioAssay AID1261 (University of Pittsburgh Molecular Library Screening Center, 2008)
# Inconclusive results are not listed. Calls of active or inactive are those of the source. How the calls were made is not given here.
# Target: Tyrosine-protein phosphatase YopH [Yersinia enterocolitica]
# Experiment: potency against Yersinia YopH phosphatase – biochemical, 10-point dose range, dose response (AID 1261)
# Settings: YopH phosphatase enzymatic assay, IC50, 3 runs
row,Structure (SMILES),IC50
1,Cc1ccc(NC2=C(NCCO)C(=O)c3ccccc3C2=O)cc1,> 50 µM (inactive)
2,CCN(CC)c1ccc(/C=N/Nc2ccc(C)cc2)c(O)c1,> 50 µM (inactive)
3,CCN(CC)c1ccc(/C=N/Nc2ccccc2)c(O)c1,> 50 µM (inactive)
4,COc1ccc(NC2=C(NCCO)C(=O)c3ccccc3C2=O)cc1,> 50 µM (inactive)

# Same assay, conditions: YopH phosphatase enzymatic assay, IC50, 3 runs; inhibition; at 50 µM; stronger effect = higher value
row,Structure (SMILES),inhibition
1,COC(=O)Cc1cnc(NC(=O)C2C3CCC(C3)C2C(=O)O)s1 (configuration not stated),-18.2%
2,CCn1c(-c2cc(OC)c(OC)c(OC)c2)n[nH]c1=S,-24%
3,Cc1ccc(S(=O)(=O)N2CCCC(C(=O)NCc3ccco3)C2)cc1Cl (configuration not stated),12.9%
4,O=C(COC(=O)c1ccc([N+](=O)[O-])s1)Nc1ccccc1,-23.9%
5,Cn1c(COc2ccccc2)nnc1SCc1nc2ccccc2[nH]1,-3.78%
6,O=S(=O)(c1ccc2ccccc2c1)N1CCC(c2nc(-c3ccncc3)no2)CC1,-14.8%
7,Cc1ccc(N2C(=O)[C@@H]3[C@H](C2=O)C2c4ccccc4C=CN2[C@@H]3C(=O)c2ccco2)cc1 (some centres not stated),-1.17%
8,O=C1c2ccccc2C(=O)C12OC2c1cccc2ccccc12 (configuration not stated),80.3%
9,COCCCNC(=O)CC(NS(=O)(=O)c1ccc(F)cc1)c1ccc(OC)cc1 (configuration not stated),-10.7%
10,CC(C)(C)c1cc(OC(=O)c2ccncc2)ccc1O,30.2%
11,CN(C1=C(NC(=O)c2ccccc2)C(=O)c2ccccc2C1=O)C1CCS(=O)(=O)C1 (configuration not stated),27%
12,CCN(CC)CCCNC(=O)Cc1c(C(=O)O)n(C)c2ccccc12,-8.3%
13,Nc1cccc(C2=Nc3cccc4cccc(c34)N2)c1,75.9%
14,COc1ccccc1N1C(C)=CC(=C(C#N)c2nc3ccccc3s2)C=C1C,-2.35%
15,CC(C)N(C(=O)COc1ccc(Br)cc1Cl)C(C)C,-12.6%
16,CCC(=O)Nc1nonc1-c1nc2ccccc2n1CCC(C)C,-8.12%
17,O=C(NC(C(=O)O)c1ccccc1)c1ccc(S(=O)(=O)N2CCOCC2)cc1 (configuration not stated),-10.8%
18,CC(=O)[C@H]1[C@@H]2C(=O)N(c3cccc(Cl)c3)C(=O)[C@@H]2[C@H]2c3ccccc3C=CN21,5.01%
19,S=c1[nH]nc(-c2ccccc2)n1/N=C/C=C/c1ccco1,3.47%

row,Structure (SMILES),inhibition
1,Nc1nnc2c(n1)CCCC2,23%
2,Cc1cc(C)nc(SCC(=O)Oc2ccc3oc(=O)cc(C)c3c2)n1,-24.4%
3,Cc1ccc(NC2=C(NCCO)C(=O)c3ccccc3C2=O)cc1,7.47%
4,O=C(O[C@@H]1OC2COC(=O)c3cc(O)c(O)c(O)c3-c3c(cc(O)c(O)c3O)C(=O)O[C@@H]([C@H]1O)[C@@H]2O)c1cc(O)c(O)c(O)c1,-0.367%
5,COCCCNC(=O)C1CCCN(C(=O)Nc2ccc(OC)cc2)C1 (configuration not stated),-19.6%
6,CCCCCCCC1=CC2=CC(=O)C(C)(OC(C)=O)C(=O)C2=CN1CCc1ccccc1 (configuration not stated),-7.04%
7,O=C(CSc1ncn[nH]1)c1ccc2c(c1)OCO2,-17.6%
8,CCN(CC)c1ccc(/C=N/Nc2ccc(C)cc2)c(O)c1,9.55%
9,CCOC(=O)COc1cc(=O)n(CC)c2ccccc12,-3.72%
10,O=c1[nH]c(Nc2ccc(F)cc2)cc2ccccc12,28.2%
11,COc1ccc2cc(-c3cc(C(=O)OCC(=O)NC4CCS(=O)(=O)C4)c4ccccc4n3)ccc2c1 (configuration not stated),3.98%
12,O=C(O)c1ccc(NC2=C(N3CCOCC3)C(=O)c3ccccc3C2=O)cc1,-0.899%
13,N[C@@H](C(=O)N[C@@H]1C(=O)N2C(C(=O)O)=C(Cl)CS[C@H]12)c1ccccc1,-8.78%
14,c1ccc(-c2csc3ncnc(NCCCN4CCOCC4)c23)cc1,-1.85%
15,CCN(CC)c1ccc(/C=N/Nc2ccccc2)c(O)c1,-13.5%
16,COc1ccc(NC2=C(NCCO)C(=O)c3ccccc3C2=O)cc1,20.2%
17,CC(=O)c1ccc(NC2=C(N3CCOCC3)C(=O)c3ccccc3C2=O)cc1,30.4%
18,COCCCNC(=O)CCCC(=O)NCCCOC,-17.3%
19,O=C(c1cccs1)N1CCN=C1SCc1cccnc1,-11.7%
